Results from patent publication US20260049071A1, “PROTEIN TYROSINE KINASE INHIBITOR AND MEDICAL USE THEREOF” (BEYANG THERAPEUTICS CO., LTD., priority 2022, published 2026).

Tests used:
KDR (VEGFR2) = KDR (VEGFR2) (Homo sapiens (Human), UniProt P35968); assay: Kinase inhibition, Mobility Shift Assay (VEGFR2); format: biochemical
Procedure, shortened: (§1)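 Mobility shift assay: each kinase preincubated 10 min at room temperature with compound, then reacted with FAM-labeled peptide, MgCl2 and ATP at 28° C. for varying times. Substrate-to-product conversion read on Caliper; % inhibition normalised to no-kinase and DMSO controls, and IC50 fitted.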

EGFR = EGFR (Homo sapiens (Human), UniProt P00533); assay: Kinase inhibition, Mobility Shift Assay (EGFR); format: biochemical
Procedure, shortened: as §1

FLT1 (VEGFR1) = FLT1 (VEGFR1) (Homo sapiens (Human), UniProt P17948); assay: Kinase inhibition, Mobility Shift Assay (VEGFR1); format: biochemical
Chain of FLT1 (VEGFR1) (P17948 27-1338): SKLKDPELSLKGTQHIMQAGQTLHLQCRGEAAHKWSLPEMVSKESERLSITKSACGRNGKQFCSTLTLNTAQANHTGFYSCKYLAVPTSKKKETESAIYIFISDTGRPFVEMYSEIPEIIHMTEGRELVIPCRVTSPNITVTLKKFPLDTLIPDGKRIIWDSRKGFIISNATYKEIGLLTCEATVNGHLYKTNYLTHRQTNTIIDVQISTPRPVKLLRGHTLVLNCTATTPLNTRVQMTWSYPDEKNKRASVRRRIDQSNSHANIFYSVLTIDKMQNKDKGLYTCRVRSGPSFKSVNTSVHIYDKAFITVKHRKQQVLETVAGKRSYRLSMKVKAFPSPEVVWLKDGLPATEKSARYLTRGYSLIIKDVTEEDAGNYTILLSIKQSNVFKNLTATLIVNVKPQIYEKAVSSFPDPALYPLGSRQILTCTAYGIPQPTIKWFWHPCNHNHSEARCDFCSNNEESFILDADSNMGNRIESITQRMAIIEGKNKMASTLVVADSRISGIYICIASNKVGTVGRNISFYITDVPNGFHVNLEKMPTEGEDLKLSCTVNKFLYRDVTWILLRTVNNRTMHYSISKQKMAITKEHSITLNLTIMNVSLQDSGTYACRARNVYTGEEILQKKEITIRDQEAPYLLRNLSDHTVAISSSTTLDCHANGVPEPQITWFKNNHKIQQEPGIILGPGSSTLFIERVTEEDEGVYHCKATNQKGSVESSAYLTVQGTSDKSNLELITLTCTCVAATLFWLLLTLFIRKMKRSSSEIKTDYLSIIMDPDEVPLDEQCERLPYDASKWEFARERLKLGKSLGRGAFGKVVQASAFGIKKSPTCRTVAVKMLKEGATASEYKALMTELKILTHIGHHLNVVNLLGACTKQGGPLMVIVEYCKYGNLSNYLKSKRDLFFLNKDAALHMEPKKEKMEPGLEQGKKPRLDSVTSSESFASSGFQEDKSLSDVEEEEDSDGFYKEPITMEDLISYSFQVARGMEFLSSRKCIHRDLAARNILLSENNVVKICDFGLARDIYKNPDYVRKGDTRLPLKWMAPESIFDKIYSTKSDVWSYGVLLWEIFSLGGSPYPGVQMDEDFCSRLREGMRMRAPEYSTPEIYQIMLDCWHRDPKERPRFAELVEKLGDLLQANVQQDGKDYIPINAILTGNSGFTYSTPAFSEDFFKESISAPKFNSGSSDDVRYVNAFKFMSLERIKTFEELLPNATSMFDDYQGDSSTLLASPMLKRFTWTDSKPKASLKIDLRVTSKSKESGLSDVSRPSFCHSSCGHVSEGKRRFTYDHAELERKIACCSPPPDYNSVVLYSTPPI
Protocol: (§2) This assay directly monitored the ability of compounds to inhibit kinase phosphorylation by measuring non-phosphorylated and phosphorylated substrates in kinase reactions by using Mobility Shift Assays/IMAP™ analysis.
(§3) Add the kinase and DTT to 1× kinase buffer to form a 2.5× kinase solution; transfer 10 μL of 2.5× kinase solution to a 384-well reaction plate and add 1× kinase buffer to negative control wells. Incubate the plate for 10 min at room temperature; add FAM-labeled peptides, MgCl2, ATP and other reagents to 1× kinase buffer to form a 2.5× substrate solution; transfer 10 μL of the above 2.5× substrate solution to the 384-well reaction plate; incubate the plate at 28° C. for different times, and add 25 μL of stop solution to the 384-well reaction plate to stop the reaction. Read the conversion ratio data on CaliperEZ Reader II. Convert conversion rates into inhibition ratio data.
(§4) “Min” indicates the readout of the control well without the addition of kinase; and “Max” indicates the readout of the control well with the addition of DMSO. Fit IC50 values with XLFit excel add-in version 5.4.0.8.
(§5) X indicates the log value of compound concentration, and Y indicates the inhibition ratio (% inhibition).

FLT4 (VEGFR3) = FLT4 (VEGFR3) (Homo sapiens (Human), UniProt P35916); assay: Kinase inhibition, Mobility Shift Assay (VEGFR3); format: biochemical
Chain of FLT4 (VEGFR3) (P35916 25-1363): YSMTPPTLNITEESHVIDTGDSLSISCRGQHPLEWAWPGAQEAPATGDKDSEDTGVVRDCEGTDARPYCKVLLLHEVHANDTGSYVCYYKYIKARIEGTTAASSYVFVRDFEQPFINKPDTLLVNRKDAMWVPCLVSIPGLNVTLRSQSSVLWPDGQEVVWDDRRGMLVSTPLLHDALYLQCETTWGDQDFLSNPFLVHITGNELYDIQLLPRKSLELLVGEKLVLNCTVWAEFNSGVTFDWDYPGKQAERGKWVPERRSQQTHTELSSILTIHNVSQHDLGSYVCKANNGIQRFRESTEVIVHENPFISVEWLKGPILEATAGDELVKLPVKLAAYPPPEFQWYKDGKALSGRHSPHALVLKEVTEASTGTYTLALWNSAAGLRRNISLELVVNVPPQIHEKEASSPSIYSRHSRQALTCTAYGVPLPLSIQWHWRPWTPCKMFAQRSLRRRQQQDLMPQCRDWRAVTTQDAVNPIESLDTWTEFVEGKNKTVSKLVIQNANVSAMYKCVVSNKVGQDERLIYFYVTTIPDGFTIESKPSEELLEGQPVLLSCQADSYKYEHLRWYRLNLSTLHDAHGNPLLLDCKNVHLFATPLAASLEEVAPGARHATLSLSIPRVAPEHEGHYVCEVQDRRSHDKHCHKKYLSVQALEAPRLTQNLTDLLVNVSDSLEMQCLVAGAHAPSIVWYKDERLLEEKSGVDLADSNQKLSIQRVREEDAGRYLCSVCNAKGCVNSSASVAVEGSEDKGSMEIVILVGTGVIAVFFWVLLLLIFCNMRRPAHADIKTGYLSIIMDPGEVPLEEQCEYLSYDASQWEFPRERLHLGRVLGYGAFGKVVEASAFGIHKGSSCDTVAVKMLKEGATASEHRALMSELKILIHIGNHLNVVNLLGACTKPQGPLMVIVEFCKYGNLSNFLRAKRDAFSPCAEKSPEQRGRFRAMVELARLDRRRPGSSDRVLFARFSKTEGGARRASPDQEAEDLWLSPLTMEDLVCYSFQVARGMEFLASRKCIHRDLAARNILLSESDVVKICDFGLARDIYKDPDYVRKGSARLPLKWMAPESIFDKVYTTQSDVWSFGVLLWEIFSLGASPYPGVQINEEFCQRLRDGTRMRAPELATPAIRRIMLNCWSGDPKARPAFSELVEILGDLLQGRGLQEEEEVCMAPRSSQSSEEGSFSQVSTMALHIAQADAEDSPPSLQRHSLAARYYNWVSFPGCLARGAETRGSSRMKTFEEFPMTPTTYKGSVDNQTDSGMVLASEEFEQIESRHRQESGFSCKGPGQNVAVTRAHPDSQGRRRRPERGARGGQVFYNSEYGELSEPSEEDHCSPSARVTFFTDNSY
Protocol: as §2, §3, §4, §5

melanin = assay: Binding capacity of compounds to melanin; format: in vitro ADME; conditions: Sepia officinalis (cuttlefish), melanin suspension (1 mg/mL); 1 mg/mL melanin suspension in PBS pH 7.4, 2 μM compound, 2 h at 37° C.; read-out: Fu % (percentage of free drug, not bound to melanin)
From the text: Pigmented eye tissues contain melanin in intracellular melanosomes. Drugs bind to melanin to varying degrees, ranging from non-binding to extensive binding. Therefore, melanin binding is an important feature that affects drug delivery and biodistribution in the eye. The binding capacity of a compound to the melanin must be considered in the development of ophthalmic drugs.
Melanin was derived from the melanin of cuttlefish (Sepia officinalis) and was commercially available from Sigma Aldrich (St Louis, MO).
First, prepare 1 mg/mL melanin suspension with PBS (pH 7.4). As a washing step for the matrix, centrifuge the suspended particles for 5 min at 3000 rpm. Resuspend the resulting particles in a fresh PBS buffer, heat to 37° C. over continuous shaking and incubate it for 1 h. Accurately pipette 2 μL of the test stock solution (0.1 mM) into 98 μL of melanin suspension (1 mg/mL) to achieve a final incubation concentration of 2 μM. Similarly, accurately pipette 2 μL of the stock solution (0.1 mM) to 98 μL of PBS buffer (containing 0.1% BSA) as a blank control sample. Incubate the samples in a shaker (80-90 rpm) for 2 h at 37° C. Then, centrifuge the samples at room temperature. Pipette 50 μL of the supernatant and add 50 μL of precipitant (containing an internal standard). After protein precipitation of all the above samples, centrifuge the samples to collect the supernatants, dilute the supernatants with water (if necessary) and inject them for analysis. At the same time, measure the positive controls, including the high-binding compounds Sunitinib and chloroquine and the low-binding compound celecoxib. Establish an LC-MS/MS method for determining compound concentrations, and calibrate the peak area ratio of analyte/internal standard (Analyte/AIS) in the measured sample by the dilution factor to take it as an alternative concentration for the sample for data processing. The binding rate (Fh) of a compound in melanin was calculated as: […]
Ctest was the concentration of the compound in the melanin-incubated sample or the peak area ratio of the test compound to the internal standard. Ccontrol was the concentration of the compound in the blank control sample or the peak area ratio of the test compound to the internal standard. Percentage of free drug (Fu %)=100−Fb The binding rates of the compounds of the present invention to melanin are shown in the table below: […]

[1] = biological target: VEGFR2 autophosphorylation (pVEGFR2) in HUVEC cells (Homo sapiens (Human), UniProt P35968); assay: Inhibition of VEGF-induced VEGFR2 autophosphorylation in HUVEC cells (ELISA); format: cell-based; conditions: 50 ng/ml human VEGF, compound 1 h
Chain of VEGFR2 autophosphorylation (pVEGFR2) in HUVEC cells (P35968 20-1356): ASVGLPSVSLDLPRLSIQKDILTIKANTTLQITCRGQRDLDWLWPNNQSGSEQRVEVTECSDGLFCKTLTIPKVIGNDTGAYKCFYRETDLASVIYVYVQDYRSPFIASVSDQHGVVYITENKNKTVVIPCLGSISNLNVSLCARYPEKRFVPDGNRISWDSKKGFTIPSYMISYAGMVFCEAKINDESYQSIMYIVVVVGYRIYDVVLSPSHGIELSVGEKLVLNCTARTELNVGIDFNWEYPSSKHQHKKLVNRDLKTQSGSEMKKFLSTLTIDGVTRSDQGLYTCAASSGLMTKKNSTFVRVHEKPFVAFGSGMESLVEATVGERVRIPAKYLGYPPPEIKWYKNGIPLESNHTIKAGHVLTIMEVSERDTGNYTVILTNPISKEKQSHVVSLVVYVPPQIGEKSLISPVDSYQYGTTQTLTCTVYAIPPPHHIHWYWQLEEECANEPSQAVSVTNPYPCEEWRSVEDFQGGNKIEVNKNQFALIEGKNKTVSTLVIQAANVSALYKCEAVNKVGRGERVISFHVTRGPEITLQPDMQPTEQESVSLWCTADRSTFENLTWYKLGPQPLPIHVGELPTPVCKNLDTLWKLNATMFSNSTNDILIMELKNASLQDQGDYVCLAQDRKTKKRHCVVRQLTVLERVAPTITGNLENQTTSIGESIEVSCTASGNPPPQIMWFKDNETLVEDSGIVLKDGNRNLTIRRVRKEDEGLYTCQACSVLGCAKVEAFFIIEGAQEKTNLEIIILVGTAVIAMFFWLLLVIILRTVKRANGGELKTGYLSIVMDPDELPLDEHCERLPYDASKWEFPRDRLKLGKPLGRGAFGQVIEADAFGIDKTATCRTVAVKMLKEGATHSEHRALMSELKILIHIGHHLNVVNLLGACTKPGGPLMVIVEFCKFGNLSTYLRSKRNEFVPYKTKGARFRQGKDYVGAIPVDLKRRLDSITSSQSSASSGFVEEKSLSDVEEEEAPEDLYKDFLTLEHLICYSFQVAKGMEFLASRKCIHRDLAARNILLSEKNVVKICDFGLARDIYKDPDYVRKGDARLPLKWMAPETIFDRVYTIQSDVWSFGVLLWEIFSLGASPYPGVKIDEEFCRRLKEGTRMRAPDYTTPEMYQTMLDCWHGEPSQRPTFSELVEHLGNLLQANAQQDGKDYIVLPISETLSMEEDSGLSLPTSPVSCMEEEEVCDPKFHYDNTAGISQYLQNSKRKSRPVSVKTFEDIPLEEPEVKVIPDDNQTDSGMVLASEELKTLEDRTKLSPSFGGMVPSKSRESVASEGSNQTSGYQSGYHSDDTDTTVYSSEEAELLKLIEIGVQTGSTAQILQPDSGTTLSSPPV
From the text: Vascular endothelial growth factor receptor 2 (VEGFR2) is a primary receptor for VEGF-induced endothelial cell signaling. After ligand binding, VEGFR2 is autophosphorylated and activated. The main function of signaling from VEGFR2 is to induce vascularization during development and after tissue injury, and to bypass blocked blood vessels. Pathologically, VEGF and VEGFR2 are involved in tumor angiogenesis and vascular leakage. They are considered to be main participants in many different cancers and ocular diseases that accompany pathological neovascularization. This assay measured the ability of the compounds to inhibit VEGF-induced VEGFR2 autophosphorylation (pVEGFR2) in HUVEC cells by using ELISA.
Culture cells in a cell culture flask to reach a fusion degree of 60%-80% before cell inoculation. Dilute the cell suspension to […] with a pre-warmed complete medium. Add 80 μL of the cell suspension to all wells of a 96-well cell plate (Corning-3599); and incubate the plate overnight at 37° C. in the presence of 5% CO2. Dissolve the compound powder to 10 mM with DMSO and store it in a nitrogen cabinet. Compound dilution plate: Add a reference compound Ponatinib or a compound to be tested to a 96 V-well plate (Axygen-WIpp 2280) at concentrations achieved as follows: performing 3-fold gradient dilution starting from 5 mM (5 μL of 10 mM compound solution plus 5 μL of DMSO) for a total of 8 concentration points. […] Transfer 20 μL of the diluted compound from the intermediate plate to a cell plate. Then, incubate the cell plate for 1 h at 37° C. in the presence of 5% CO2. After the compound was treated for 1 h, add 25 μL of 250 ng/ml human VEGF at a final concentration of 50 ng/ml to a 96-well plate; and incubate the plate for 5 min at 37° C. in the presence of 5% CO2, centrifuge the plate for 10 min at 3,000 rpm, remove the medium and wash the cells once with 300 μL of pre-chilled DPBS per well. Then, centrifuge the plate for 10 min at 4,000 rpm, remove DPBS, and add 110 μL of pre-chilled 1× cell lysis buffer per well to the 96-well plate. Shake the plate for 40 min at 4° C. Then, freeze the plate in a refrigerator at −80° C. On the next day, remove the plate from the refrigerator at −80° C., thaw the plate, centrifuge the plate for 10 min at 3500 rpm, and add 100 μL of the supernatant per well to an ELISA plate. Seal the plate and incubate it for 2 h at 37° C. Wash the wells 4 times with 1× wash buffer. Add 100 μL of recombinant detection antibody per well. Seal the plate, incubate the plate for 1 h at 37° C., and repeat the step of plate washing. Add 100 μL of secondary antibody per well. Seal the plate, incubate the plate for 30 min at 37° C., and repeat the step of plate washing. Add 100 μL of TMB (protected from light) per well. Seal the plate, incubate the plate for 30 min at 37° C., and add 100 μL of the stop solution per well. Gently shake for 30 sec, measure the absorbance with a SpectraMax® 340 PC 384 Absorbance Microplate Reader within 30 min, and read an optical density value at 450 nm. Conduct data analysis using XL Fit software:
Conduct curve fitting using the 4 Parameter Logistic Model or Sigmoidal Dose-Response Model:
X indicating the log value of compound concentration, Y indicating the inhibition ratio (% inhibition), Top indicating the readout of the negative control wells, and bottom indicating the readout of the positive control well.

Chain of KDR (VEGFR2) (P35968 790-1356): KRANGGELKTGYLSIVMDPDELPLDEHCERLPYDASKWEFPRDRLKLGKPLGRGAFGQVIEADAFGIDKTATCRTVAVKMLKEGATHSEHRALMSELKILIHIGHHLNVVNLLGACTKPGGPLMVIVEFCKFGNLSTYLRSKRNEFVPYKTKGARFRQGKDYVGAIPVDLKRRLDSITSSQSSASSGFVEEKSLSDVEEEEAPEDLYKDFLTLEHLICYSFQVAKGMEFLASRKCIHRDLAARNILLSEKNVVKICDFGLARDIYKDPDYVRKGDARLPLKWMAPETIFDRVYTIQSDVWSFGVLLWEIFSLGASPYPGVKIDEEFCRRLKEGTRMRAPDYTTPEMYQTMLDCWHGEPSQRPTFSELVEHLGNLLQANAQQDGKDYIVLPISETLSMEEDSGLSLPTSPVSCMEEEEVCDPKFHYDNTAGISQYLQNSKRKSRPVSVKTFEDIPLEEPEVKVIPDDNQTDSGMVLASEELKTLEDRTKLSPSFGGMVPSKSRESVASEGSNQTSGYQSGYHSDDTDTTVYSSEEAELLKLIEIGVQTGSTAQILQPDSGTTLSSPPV

IC50 (KDR (VEGFR2)) [nM] | IC50 (EGFR) [nM] | IC50 (FLT1 (VEGFR1)) [nM] | IC50 (FLT4 (VEGFR3)) [nM] | fraction unbound at 2 h, 2 μM (melanin) | IC50 [1] [nM] | Compound
1 to 10 | 6000 to 60000 | 1 to 10 | 1 to 10 | > 0.05 | – | CNC(=O)c1cccc(F)c1Sc1ccc2c(/C=C/c3ccc(OCCN4CCCC4)cn3)n[nH]c2c1 [Compound I-33, 3-fluoro-N-methyl-2-({3-[(E)-2-{5-[2-(pyrrolidin-1-yl)ethoxy]pyridin-2-yl}vinyl]-1H-indazol-6-yl}thio)benzamide]
1 to 10 | 6000 to 60000 | 1 to 10 | 1 to 10 | 0.01 to 0.05 | – | CNC(=O)c1ccc(F)cc1Sc1ccc2c(/C=C/c3ccc(OCCN4CCCC4)cn3)n[nH]c2c1 [Compound I-35]
1 to 10 | 6000 to 60000 | > 100 | 1 to 10 | > 0.05 | – | CNC(=O)c1c(F)cccc1Sc1ccc2c(/C=C/c3ccc(OCCN4CCCC4)cn3)n[nH]c2c1 [Compound I-36, 2-fluoro-N-methyl-6-({3-[(E)-2-{5-[2-(pyrrolidin-1-yl)ethoxy]pyridin-2-yl}vinyl]-1H-indazol-6-yl}thio)benzamide]
> 100 | 6000 to 60000 | – | – | – | > 5 | CCNC(=O)c1cccc(F)c1Sc1ccc2c(/C=C/c3cccc(CN4CCCC4)n3)n[nH]c2c1 [Compound I-113, N-ethyl-3-fluoro-2-({3-[(E)-2-{6-[(pyrrolidin-1-yl)methyl]pyridin-2-yl}vinyl]-1H-indazol-6-yl}thio)benzamide]
10 to 100 | > 60000 | 10 to 100 | 10 to 100 | 0.01 to 0.05 | – | CCNC(=O)c1cccc(F)c1Sc1ccc2c(/C=C/c3cc(CCCN4CCCC4)ccn3)n[nH]c2c1 [Compound I-116, N-ethyl-3-fluoro-2-({3-[(E)-2-{4-[3-(pyrrolidin-1-yl)propyl]pyridin-2-yl}vinyl]-1H-indazol-6-yl}thio)benzamide]
1 to 10 | > 60000 | 10 to 100 | 10 to 100 | < 0.01 | – | O=C(NC1CC1)c1cc(F)ccc1Sc1ccc2c(/C=C/c3cc(OCCN4CCCC4)ccn3)n[nH]c2c1 [Compound I-118, N-cyclopropyl-5-fluoro-2-({3-[(E)-2-{4-[2-(pyrrolidin-1-yl)ethoxy]pyridin-2-yl}vinyl]-1H-indazol-6-yl}thio)benzamide]

Second part, the molecule before the results:

Compound | IC50 (KDR (VEGFR2)) [nM] | IC50 (EGFR) [nM] | IC50 (FLT1 (VEGFR1)) [nM] | IC50 (FLT4 (VEGFR3)) [nM] | fraction unbound at 2 h, 2 μM (melanin) | IC50 [1] [nM]
CN1CCN(c2ccc(/C=C/c3n[nH]c4cc(Sc5ccccc5C(=O)NC5CC5)ccc34)nc2)CC1 [Compound I-38, N-cyclopropyl-2-({3-[(E)-2-[5-(4-methylpiperazin-1-yl)pyridin-2-yl]vinyl]-1H-indazol-6-yl}thio)benzamide] | ≤ 1 | 600 to 6000 | ≤ 1 | ≤ 1 | 0.01 to 0.05 | –
CNC(=O)c1ccccc1Sc1ccc2c(/C=C/c3ccc(OC[C@@H]4CCN(C)C4)cn3)n[nH]c2c1 [Compound I-39, N-methyl-2-({3-[(E)-2-(5-{[(3R)-1-methylpyrrolidin-3-yl]methoxy}pyridin-2-yl)vinyl]-1H-indazol-6-yl}thio)benzamide] | ≤ 1 | 6000 to 60000 | ≤ 1 | 1 to 10 | 0.01 to 0.05 | –
O=C(NC1CC1)c1ccccc1Sc1ccc2c(/C=C/c3ccc(CN4CCCC4)cn3)n[nH]c2c1 [Compound I-41, N-cyclopropyl-2-({3-[(E)-2-{5-[(pyrrolidin-1-yl)methyl]pyridin-2-yl}vinyl]-1H-indazol-6-yl}thio)benzamide] | ≤ 1 | 6000 to 60000 | – | – | > 0.05 | ≤ 1
O=C(NC1CC1)c1ccccc1Sc1ccc2c(/C=C/c3cc(OCCN4CCCC4)ccn3)n[nH]c2c1 [Compound I-110, N-cyclopropyl-2-({3-[(E)-2-{4-[2-(pyrrolidin-1-yl)ethoxy]pyridin-2-yl}vinyl]-1H-indazol-6-yl}thio)benzamide] | 1 to 10 | 6000 to 60000 | – | – | – | 1 to 5
O=C(NC1CC1)c1ccccc1Sc1ccc2c(/C=C/c3cc(CN4CCCC4)ccn3)n[nH]c2c1 [Compound I-115, N-cyclopropyl-2-({3-[(E)-2-{4-[(pyrrolidin-1-yl)methyl]pyridin-2-yl}vinyl]-1H-indazol-6-yl}thio)benzamide] | 1 to 10 | 6000 to 60000 | 1 to 10 | 10 to 100 | 0.01 to 0.05 | –
O=C(NC1CC1)c1ccccc1Sc1ccc2c(/C=C/c3cccc(CN4CCCC4)n3)n[nH]c2c1 [Compound I-117, N-cyclopropyl-2-({3-[(E)-2-{6-[(pyrrolidin-1-yl)methyl]pyridin-2-yl}vinyl]-1H-indazol-6-yl}thio)benzamide] | 1 to 10 | > 60000 | 1 to 10 | 1 to 10 | 0.01 to 0.05 | –
